Laboratory results: ChEMBL document CHEMBL4346764, “Design, synthesis, and evaluation of N-(4-(4-phenyl piperazin-1-yl)butyl)-4-(thiophen-3-yl)benzamides as selective dopamine D3 receptor ligands” (Bioorg Med Chem Lett, 2019)

How the values were obtained:
[1] = AUC in Sprague-Dawley rat at 1 mg/kg, iv by LC/MS/MS analysis; assay type: ADME, organism-based; conditions: in vivo
[2] = Volume of distribution at steady state in Sprague-Dawley rat at 1 mg/kg, iv by LC/MS/MS analysis; assay type: ADME, organism-based; conditions: in vivo, read-out: Vdss

AUC [1]	Vd [2]	SMILES
0.22 µg·h/mL	28.6 L/kg	N#Cc1cccc(N2CCN(CCCCNC(=O)c3ccc(-c4ccsc4)cc3)CC2)c1
0.21 µg·h/mL	55.7 L/kg	O=C(NCCCCN1CCN(c2cc(Cl)cc(Cl)c2)CC1)c1ccc(-c2ccsc2)cc1
